{"source": "ChEMBL document CHEMBL5523756", "about": "“Molecular Transformers: Adaptive Multitarget Ligands for Esterase-Induced Transition from Analgesics to Anesthetics” (J Med Chem, 2024)", "key": {"Mus musculus [1]": {"test_system": "Mus musculus", "assay": "Analgesic effect in ICR mouse model of CFA-induced chronic inflammatory pain assessed as increase in paw withdrawal threshold at 0.07 mmol/kg, ip measured upto 90 mins by Von Frey test", "format": "functional, organism-based"}, "[2]": {"assay": "Toxicity in ICR mouse assessed as survival rate at 1.5 times ED50 administered intravenously", "conditions": "in vivo, route iv"}, "Rattus norvegicus": {"test_system": "Rattus norvegicus", "assay": "Analgesic activity in Sprague-Dawley rat model of mechanical nociceptive irritation assessed as response to tail pinch at 19 mg/kg administered as continuous infusion followed by maintenance at 3.25 mg/kg/min for 0 to 20 mins, 2.5 mg/kg/min for 20 to 30 mins and 2 mg/kg/min for 30 to 60 mins", "format": "functional, organism-based", "conditions": "route par"}, "[3]": {"assay": "(§1) Toxicity in Sprague-Dawley rat assessed as effect on respiratory frequency at 19 mg/kg administered as continuous infusion followed by maintenance at 3.25 mg/kg/min for 0 to 20 mins, 2.5 mg/kg/min for 20 to 30 mins and 2 mg/kg/min for 30 to 60 mins and measured every 5 mins for 60 mins by whole-body plethysmography", "format": "organism-based", "conditions": "in vivo, other, 1 h, route par"}, "[4]": {"assay": "as §1, with “end expiratory pause” for “respiratory frequency”", "format": "organism-based", "conditions": "in vivo, other, 1 h, route par"}, "[5]": {"assay": "as §1, with “end inspiratory pause” for “respiratory frequency”", "format": "organism-based", "conditions": "in vivo, other, 1 h, route par"}, "[6]": {"assay": "Toxicity in Sprague-Dawley rat assessed as effect on gastrointestinal function by measuring ink peristalsis at 19 mg/kg administered as continuous infusion followed by maintenance at 3.25 mg/kg/min for 0 to 20 mins, 2.5 mg/kg/min for 20 to 30 mins and 2 mg/kg/min for 30 to 60 mins and further administered with ink suspension and measured after 10 mins", "format": "organism-based", "conditions": "in vivo, other, 1.167 h, route par, time 70 min"}, "[7]": {"assay": "Toxicity in Sprague-Dawley rat assessed as reduction in heart rate at 19 mg/kg administered as continuous infusion followed by maintenance at 3.25 mg/kg/min for 0 to 20 mins, 2.5 mg/kg/min for 20 to 30 mins and 2 mg/kg/min for 30 to 60 mins by electrocardiogram recording", "format": "organism-based", "set-up": "scale not given: the % may be the effect or the level left", "conditions": "in vivo, other, 1 h, route par"}, "[8]": {"assay": "Toxicity in Sprague-Dawley rat assessed as Q-T interval prolongation at 19 mg/kg administered as continuous infusion followed by maintenance at 3.25 mg/kg/min for 0 to 20 mins, 2.5 mg/kg/min for 20 to 30 mins and 2 mg/kg/min for 30 to 60 mins by electrocardiogram recording", "format": "organism-based", "conditions": "in vivo, other, 1 h, route par"}, "Mus musculus [9]": {"test_system": "Mus musculus", "assay": "Antiseizure activity in iv dosed ICR mouse model of PTZ-induced acute seizure assessed as prolongation of latency time before onset of first convulsion preadministered for 1 min followed by PTZ treatment", "format": "functional, organism-based"}, "Mus musculus [10]": {"test_system": "Mus musculus", "assay": "Antiseizure activity in iv dosed ICR mouse model of PTZ-induced acute seizure assessed as reduction in maximum seizure class preadministered for 1 min followed by PTZ treatment and measured for 15 mins by Racine's scale based analysis", "format": "functional, organism-based", "conditions": "time 16.0 min"}, "Mus musculus [11]": {"test_system": "Mus musculus", "assay": "Antiseizure activity in iv dosed ICR mouse model of PTZ-induced acute seizure assessed as mortality rate preadministered for 1 min followed by PTZ treatment and measured for 7 days (reference value: 83.3%)", "format": "functional", "conditions": "time 7 day"}, "[12]": {"assay": "Toxicity in Sprague-Dawley rat assessed as effect on creatinine level at 19 mg/kg administered as continuous infusion followed by maintenance at 3.25 mg/kg/min for 0 to 20 mins, 2.5 mg/kg/min for 20 to 30 mins and 2 mg/kg/min for 30 to 60 mins", "format": "organism-based", "conditions": "in vivo, other, 1 h, route par"}, "[13]": {"assay": "Toxicity in Sprague-Dawley rat assessed as effect on LDH level at 19 mg/kg administered as continuous infusion followed by maintenance at 3.25 mg/kg/min for 0 to 20 mins, 2.5 mg/kg/min for 20 to 30 mins and 2 mg/kg/min for 30 to 60 mins", "format": "organism-based", "conditions": "in vivo, other, 1 h, route par"}, "[14]": {"assay": "Toxicity in ICR mouse assessed as histopathological changes in liver at 1.5 times ED50, iv administered as single dose and measured after 14 days by H and E staining based analysis", "format": "organism-based", "conditions": "in vivo, 336 h, time 14 day"}, "[15]": {"assay": "Toxicity in Sprague-Dawley rat assessed as histopathological changes in kidney at 19 mg/kg administered as continuous infusion followed by maintenance at 3.25 mg/kg/min for 0 to 20 mins, 2.5 mg/kg/min for 20 to 30 mins and 2 mg/kg/min for 30 to 60 mins and measured after 14 days by H and E staining based analysis", "format": "organism-based", "conditions": "in vivo, other, 336 h, route par, time 14 day"}, "Cytochrome P450 3A4": {"biological_target": "Cytochrome P450 3A4 (Homo sapiens, UniProt P08684)", "sequence (P08684 whole entry)": "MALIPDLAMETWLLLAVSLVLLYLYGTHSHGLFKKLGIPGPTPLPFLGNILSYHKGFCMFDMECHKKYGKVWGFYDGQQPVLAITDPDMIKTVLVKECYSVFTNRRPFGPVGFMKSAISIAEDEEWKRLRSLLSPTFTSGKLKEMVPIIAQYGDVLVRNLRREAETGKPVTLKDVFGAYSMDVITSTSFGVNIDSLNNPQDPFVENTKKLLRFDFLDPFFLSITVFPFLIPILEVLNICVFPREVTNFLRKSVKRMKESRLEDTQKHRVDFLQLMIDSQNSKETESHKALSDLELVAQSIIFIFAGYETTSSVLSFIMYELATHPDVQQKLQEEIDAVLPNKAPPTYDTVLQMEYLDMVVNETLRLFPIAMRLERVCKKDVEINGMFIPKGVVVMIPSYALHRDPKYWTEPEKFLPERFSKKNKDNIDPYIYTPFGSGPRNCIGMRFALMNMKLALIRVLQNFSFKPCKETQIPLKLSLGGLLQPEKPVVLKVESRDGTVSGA", "assay": "Inhibition of CYP3A4 (unknown origin) using midazolam as substrate at 10 uM", "format": "ADME"}, "Cytochrome P450 2C9": {"biological_target": "Cytochrome P450 2C9 (Homo sapiens, UniProt P11712)", "sequence (P11712 whole entry)": "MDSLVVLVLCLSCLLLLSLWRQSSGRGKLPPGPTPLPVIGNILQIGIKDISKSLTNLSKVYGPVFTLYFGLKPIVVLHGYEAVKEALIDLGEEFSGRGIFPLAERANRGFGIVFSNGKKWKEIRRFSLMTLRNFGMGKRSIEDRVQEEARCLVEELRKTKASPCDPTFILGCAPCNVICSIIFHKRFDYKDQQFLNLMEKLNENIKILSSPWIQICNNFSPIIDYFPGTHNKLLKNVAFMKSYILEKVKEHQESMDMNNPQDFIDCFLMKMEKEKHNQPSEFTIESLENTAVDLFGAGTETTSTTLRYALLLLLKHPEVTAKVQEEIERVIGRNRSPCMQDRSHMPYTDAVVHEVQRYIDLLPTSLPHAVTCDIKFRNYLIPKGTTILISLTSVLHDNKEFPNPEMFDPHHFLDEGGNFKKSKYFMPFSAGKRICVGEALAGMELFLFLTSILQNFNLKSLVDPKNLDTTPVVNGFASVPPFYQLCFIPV", "assay": "Inhibition of CYP2C9 (unknown origin) using diclofenac as substrate at 10 uM", "format": "ADME"}, "CYP1A2": {"biological_target": "T1, CYP1A2 (Homo sapiens, UniProt P05177)", "T1 sequence (P05177 whole entry)": "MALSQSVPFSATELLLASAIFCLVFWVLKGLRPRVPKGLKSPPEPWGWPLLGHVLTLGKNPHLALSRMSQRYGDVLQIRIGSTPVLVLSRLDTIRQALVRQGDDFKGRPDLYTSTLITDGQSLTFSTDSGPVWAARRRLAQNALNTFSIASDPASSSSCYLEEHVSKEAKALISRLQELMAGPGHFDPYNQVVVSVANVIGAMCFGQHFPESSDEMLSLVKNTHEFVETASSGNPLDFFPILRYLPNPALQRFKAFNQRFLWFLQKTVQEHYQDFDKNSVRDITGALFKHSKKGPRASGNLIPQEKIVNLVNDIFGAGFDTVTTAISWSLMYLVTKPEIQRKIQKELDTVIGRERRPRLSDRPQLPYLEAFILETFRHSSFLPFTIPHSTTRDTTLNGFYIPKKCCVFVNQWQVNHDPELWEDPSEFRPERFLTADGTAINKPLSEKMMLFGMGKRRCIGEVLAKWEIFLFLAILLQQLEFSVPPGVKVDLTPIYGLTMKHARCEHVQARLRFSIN", "assay": "Inhibition of CYP1A2 (unknown origin) using phenacetin as substrate at 10 uM relative to control", "format": "ADME", "conditions": "probe phenacetin"}, "[16]": {"assay": "Stability in mouse plasma assessed as half life at 1 mg/ml measured upto 360 mins by HPLC analysis", "format": "ADME, cell-free"}, "[17]": {"assay": "Stability in rat plasma assessed as half life at 1 mg/ml measured upto 360 mins by HPLC analysis", "format": "ADME, cell-free"}, "[18]": {"assay": "Drug metabolism in mouse liver microsomes assessed as propofol release by measuring half life at 1 mg/ml measured upto 360 mins by LC-MS analysis", "format": "ADME, Microsome", "conditions": "6 h"}, "[19]": {"biological_target": "Sodium channel protein type 10 subunit alpha (Homo sapiens, UniProt Q9Y5Y9)", "sequence (Q9Y5Y9 whole entry)": "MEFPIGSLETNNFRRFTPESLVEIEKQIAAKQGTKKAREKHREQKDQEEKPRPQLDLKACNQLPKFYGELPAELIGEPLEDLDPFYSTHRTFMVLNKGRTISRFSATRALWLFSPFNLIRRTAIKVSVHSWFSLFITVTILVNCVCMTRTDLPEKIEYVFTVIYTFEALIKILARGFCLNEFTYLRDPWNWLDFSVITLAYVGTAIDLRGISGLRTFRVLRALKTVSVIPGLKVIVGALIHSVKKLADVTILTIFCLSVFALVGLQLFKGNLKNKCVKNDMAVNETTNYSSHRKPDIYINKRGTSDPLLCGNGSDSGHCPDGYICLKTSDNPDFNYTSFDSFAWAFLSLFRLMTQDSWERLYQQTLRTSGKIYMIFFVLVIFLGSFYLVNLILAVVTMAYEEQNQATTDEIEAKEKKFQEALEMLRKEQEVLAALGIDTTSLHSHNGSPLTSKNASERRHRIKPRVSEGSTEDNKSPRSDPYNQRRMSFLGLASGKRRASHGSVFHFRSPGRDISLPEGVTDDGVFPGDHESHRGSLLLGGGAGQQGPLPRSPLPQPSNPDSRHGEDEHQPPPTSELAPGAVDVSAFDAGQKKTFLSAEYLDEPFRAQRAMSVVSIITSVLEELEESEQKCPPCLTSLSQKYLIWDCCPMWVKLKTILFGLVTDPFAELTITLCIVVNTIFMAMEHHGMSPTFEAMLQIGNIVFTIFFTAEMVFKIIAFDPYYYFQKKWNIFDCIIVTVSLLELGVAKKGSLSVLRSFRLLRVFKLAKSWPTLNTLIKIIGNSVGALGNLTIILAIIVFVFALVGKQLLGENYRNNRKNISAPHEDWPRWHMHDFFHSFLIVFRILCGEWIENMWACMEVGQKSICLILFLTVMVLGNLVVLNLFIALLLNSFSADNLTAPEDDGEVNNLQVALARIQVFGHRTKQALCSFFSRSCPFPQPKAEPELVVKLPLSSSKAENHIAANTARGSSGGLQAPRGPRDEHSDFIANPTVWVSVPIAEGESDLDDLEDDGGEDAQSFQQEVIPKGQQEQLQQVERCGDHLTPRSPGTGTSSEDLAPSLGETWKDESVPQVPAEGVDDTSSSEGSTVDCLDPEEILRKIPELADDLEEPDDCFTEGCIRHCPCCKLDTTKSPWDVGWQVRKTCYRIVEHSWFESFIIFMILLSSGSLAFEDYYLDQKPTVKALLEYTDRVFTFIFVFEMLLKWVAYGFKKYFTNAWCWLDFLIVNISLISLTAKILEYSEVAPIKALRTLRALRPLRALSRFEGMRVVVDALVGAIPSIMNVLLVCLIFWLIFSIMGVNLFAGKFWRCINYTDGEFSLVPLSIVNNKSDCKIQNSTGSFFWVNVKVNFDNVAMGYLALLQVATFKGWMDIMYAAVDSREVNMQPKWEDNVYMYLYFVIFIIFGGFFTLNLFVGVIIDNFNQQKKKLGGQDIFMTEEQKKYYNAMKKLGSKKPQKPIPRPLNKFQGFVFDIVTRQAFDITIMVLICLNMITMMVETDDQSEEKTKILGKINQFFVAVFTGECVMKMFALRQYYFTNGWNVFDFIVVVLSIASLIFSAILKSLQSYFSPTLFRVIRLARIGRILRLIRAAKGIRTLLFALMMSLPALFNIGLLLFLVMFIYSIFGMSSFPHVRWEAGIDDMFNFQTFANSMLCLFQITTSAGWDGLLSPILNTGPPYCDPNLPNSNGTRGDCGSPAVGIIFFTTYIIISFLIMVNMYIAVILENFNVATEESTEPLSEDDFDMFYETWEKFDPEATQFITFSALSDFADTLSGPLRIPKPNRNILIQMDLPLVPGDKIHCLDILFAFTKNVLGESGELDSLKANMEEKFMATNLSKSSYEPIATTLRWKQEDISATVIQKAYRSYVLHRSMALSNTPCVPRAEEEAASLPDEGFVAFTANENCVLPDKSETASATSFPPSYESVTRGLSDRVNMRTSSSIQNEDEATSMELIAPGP", "assay": "Inhibition of Nav1.8 channel (unknown origin) at resting state at -120 mV conditioning pulse by voltage clamp electrophysiological recording"}, "[20]": {"biological_target": "Sodium channel protein type 5 subunit alpha (Homo sapiens, UniProt Q14524)", "sequence (Q14524 whole entry)": "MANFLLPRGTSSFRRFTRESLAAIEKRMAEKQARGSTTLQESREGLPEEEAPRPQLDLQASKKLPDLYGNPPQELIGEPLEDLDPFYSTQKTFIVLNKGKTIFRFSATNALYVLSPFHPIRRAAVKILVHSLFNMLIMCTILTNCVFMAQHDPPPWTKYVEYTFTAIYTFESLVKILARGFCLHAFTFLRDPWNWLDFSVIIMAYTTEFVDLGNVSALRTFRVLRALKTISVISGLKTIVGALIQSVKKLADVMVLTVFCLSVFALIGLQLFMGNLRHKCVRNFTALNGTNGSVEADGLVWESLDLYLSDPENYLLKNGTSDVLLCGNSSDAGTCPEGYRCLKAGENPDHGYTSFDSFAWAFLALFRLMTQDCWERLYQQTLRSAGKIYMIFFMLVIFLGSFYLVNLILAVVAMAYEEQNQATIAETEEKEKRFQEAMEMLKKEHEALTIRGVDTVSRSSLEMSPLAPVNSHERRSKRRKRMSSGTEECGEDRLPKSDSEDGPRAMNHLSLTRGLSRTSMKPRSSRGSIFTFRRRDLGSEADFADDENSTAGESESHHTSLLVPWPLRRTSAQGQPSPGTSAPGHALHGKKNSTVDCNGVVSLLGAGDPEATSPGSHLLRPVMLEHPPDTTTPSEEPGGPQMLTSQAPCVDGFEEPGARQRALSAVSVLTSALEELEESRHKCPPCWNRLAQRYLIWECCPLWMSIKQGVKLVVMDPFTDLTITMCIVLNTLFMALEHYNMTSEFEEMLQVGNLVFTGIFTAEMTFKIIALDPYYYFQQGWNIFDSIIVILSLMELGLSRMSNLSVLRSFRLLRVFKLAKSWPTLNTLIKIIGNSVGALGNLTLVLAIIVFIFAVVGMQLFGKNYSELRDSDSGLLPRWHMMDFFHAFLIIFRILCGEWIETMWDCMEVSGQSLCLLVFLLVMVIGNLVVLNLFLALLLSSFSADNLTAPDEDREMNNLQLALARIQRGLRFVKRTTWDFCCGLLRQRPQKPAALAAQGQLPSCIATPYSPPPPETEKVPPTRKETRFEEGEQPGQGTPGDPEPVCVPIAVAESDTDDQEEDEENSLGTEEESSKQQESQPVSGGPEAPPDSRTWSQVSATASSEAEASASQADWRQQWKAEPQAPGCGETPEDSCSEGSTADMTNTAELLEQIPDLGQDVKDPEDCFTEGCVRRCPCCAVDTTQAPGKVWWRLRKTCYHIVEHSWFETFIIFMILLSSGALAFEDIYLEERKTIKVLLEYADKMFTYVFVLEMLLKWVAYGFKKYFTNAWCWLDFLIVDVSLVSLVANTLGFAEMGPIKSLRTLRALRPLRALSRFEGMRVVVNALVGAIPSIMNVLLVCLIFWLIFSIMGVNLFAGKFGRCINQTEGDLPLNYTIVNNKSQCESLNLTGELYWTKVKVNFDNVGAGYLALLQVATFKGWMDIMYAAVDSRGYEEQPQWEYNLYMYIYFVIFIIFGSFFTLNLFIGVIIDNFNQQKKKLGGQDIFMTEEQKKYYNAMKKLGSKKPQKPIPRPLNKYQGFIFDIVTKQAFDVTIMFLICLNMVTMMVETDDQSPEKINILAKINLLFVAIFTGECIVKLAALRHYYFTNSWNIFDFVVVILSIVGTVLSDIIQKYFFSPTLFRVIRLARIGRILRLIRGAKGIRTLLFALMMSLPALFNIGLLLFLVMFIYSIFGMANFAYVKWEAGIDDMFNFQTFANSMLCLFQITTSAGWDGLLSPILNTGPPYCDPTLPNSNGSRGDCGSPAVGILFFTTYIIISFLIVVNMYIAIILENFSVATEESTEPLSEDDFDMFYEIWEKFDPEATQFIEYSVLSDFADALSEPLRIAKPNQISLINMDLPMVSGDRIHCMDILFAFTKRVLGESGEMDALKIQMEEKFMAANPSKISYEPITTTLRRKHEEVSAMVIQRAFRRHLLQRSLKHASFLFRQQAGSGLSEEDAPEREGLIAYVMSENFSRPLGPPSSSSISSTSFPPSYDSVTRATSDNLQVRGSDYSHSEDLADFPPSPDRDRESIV", "assay": "Inhibition of Nav1.5 channel (unknown origin) at resting state at -120 mV conditioning pulse by voltage clamp electrophysiological recording", "format": "toxicity"}, "DRG neuron": {"test_system": "DRG neuron", "assay": "Modulation of CFA-induced male ICR mouse DRG neuron excitability assessed as reduction in action potential's rheobase at 10 uM by whole cell […] assay", "format": "functional, cell-based"}}, "note": "pIC50: −log10 of the molar value. Active and inactive are the calls of the source."}
{"smiles": "CCN(CC)CCOC(=O)Oc1c(C(C)C)cccc1C(C)C.Cl", "values": [{"measurement": "Activity", "setting": "Mus musculus [1]", "value": "Active"}, {"measurement": "survival", "setting": "[2]", "value": 100, "unit": "%"}, {"measurement": "Activity", "setting": "Rattus norvegicus", "value": "Active"}, {"measurement": "Activity", "setting": "[3]", "value": "Non-Toxic"}, {"measurement": "Activity", "setting": "[4]", "value": "Non-Toxic"}, {"measurement": "Activity", "setting": "[5]", "value": "Non-Toxic"}, {"measurement": "Activity", "setting": "[6]", "value": "Non-Toxic"}, {"measurement": "Activity", "setting": "[7]", "value": "< 20", "unit": "%"}, {"measurement": "Activity", "setting": "[8]", "value": "Non-Toxic"}, {"measurement": "Activity", "setting": "Mus musculus [9]", "value": "Active"}, {"measurement": "Activity", "setting": "Mus musculus [10]", "value": "Active"}, {"measurement": "Activity", "setting": "Mus musculus [11]", "value": 0, "unit": "%"}, {"measurement": "Activity", "setting": "[12]", "value": "Non-Toxic"}, {"measurement": "Activity", "setting": "[13]", "value": "Non-Toxic"}, {"measurement": "Activity", "setting": "[14]", "value": "Non-Toxic"}, {"measurement": "Activity", "setting": "[15]", "value": "Non-Toxic"}, {"measurement": "inhibition (INH)", "setting": "Cytochrome P450 3A4", "value": "Not Active"}, {"measurement": "inhibition (INH)", "setting": "Cytochrome P450 2C9", "value": "Not Active"}, {"measurement": "inhibition at 10 µM", "setting": "CYP1A2", "value": 26.2, "unit": "%"}, {"measurement": "half-life at 1 mg/ml", "setting": "[16]", "value": 19.2, "unit": "min"}, {"measurement": "half-life at 1 mg/ml", "setting": "[17]", "value": 1.7, "unit": "min"}, {"measurement": "t1/2", "setting": "[18]", "value": 45.98, "unit": "min"}, {"measurement": "pIC50", "setting": "[19]", "value": "< 4.52"}, {"measurement": "pIC50", "setting": "[20]", "value": 4.63}, {"measurement": "Activity", "setting": "DRG neuron", "value": "inactive"}]}
